Source: ChEMBL document CHEMBL5247608, “HIV-1 gp120-CXCR4 recognition probed with synthetic nanomolar affinity D-peptides containing fragments of gp120 V3 loop” (Eur J Med Chem, 2022)
Active and inactive are the calls of the source. The rule behind the calls is not given here. Where a SMILES comes first, the peptide text is derived from it. [ ]: non-standard residue; d: D form.

Assays:
[1] = tested on: Human immunodeficiency virus 1; assay: Antiviral activity against HIV-1 R5 Bal-6 infected in human PBMC assessed as inhibition of viral replication by measuring reduction in p24 antigen level at 0.1 to 10 uM measured after 5 days by ELISA; format: functional, organism-based; conditions: dose 0.1-10 µM, time 5.0 day
[2] = Cytotoxicity against human PBMC assessed as reduction in cell viability at 0.016 to 10 uM incubated for 5 days by CellTiter-Blue assay; format: toxicity, cell-based; conditions: 120 h, dose 0.016-10 µM, time 5 day
[3] = tested on: Human immunodeficiency virus 1; assay: Antiviral activity against HIV-1 X4 NL4-3 infected in human PBMC assessed as inhibition of viral replication by measuring reduction in p24 antigen level at 10 uM measured after 5 days by ELISA; format: functional, organism-based; conditions: time 5.0 day
[4] = target: T1, C-X-C chemokine receptor type 4 (Homo sapiens, UniProt P61073); assay: Displacement of 12G5 mAb from CXCR4 (unknown origin) expressed in CHO cells incubated for 40 mins by spectrophotometric method; format: cell-based
T1 sequence (P61073 whole entry): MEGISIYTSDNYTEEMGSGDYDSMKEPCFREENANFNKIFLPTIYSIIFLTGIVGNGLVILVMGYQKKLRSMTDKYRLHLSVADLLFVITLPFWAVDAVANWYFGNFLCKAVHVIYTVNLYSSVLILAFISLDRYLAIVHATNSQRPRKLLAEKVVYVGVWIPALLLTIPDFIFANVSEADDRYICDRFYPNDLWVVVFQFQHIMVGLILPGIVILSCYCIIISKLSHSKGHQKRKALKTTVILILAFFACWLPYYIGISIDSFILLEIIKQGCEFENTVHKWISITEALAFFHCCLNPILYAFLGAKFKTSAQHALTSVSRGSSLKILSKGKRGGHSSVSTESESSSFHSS

[5] = tested on: C-X-C chemokine receptor type 4 (Homo sapiens), P61073 [E288D]; assay: Displacement of 12G5 mAb from CXCR4 E288D mutant (unknown origin) expressed in CHO cells at 500 nM incubated for 40 mins by spectrophotometric method; format: cell-based
C-X-C chemokine receptor type 4 (Homo sapiens), P61073 [E288D], sequence (P61073 whole entry E288D): as the sequence (P61073 whole entry) above, with E288D counted along it

[6] = tested on: C-X-C chemokine receptor type 4 (Homo sapiens), P61073 [H113A]; assay: Displacement of 12G5 mAb from CXCR4 H113A mutant (unknown origin) expressed in CHO cells at 500 nM incubated for 40 mins by spectrophotometric method; format: cell-based
C-X-C chemokine receptor type 4 (Homo sapiens), P61073 [H113A], sequence (P61073 whole entry H113A): as the sequence (P61073 whole entry) above, with H113A counted along it

[7] = tested on: C-X-C chemokine receptor type 4 (Homo sapiens), P61073 [Y116A]; assay: Displacement of 12G5 mAb from CXCR4 Y116A mutant (unknown origin) expressed in CHO cells at 500 nM incubated for 40 mins by spectrophotometric method; format: cell-based
C-X-C chemokine receptor type 4 (Homo sapiens), P61073 [Y116A], sequence (P61073 whole entry Y116A): as the sequence (P61073 whole entry) above, with Y116A counted along it

[8] = tested on: C-X-C chemokine receptor type 4 (Homo sapiens), P61073 [Y45A]; assay: Displacement of 12G5 mAb from CXCR4 Y45A mutant (unknown origin) expressed in CHO cells at 500 nM incubated for 40 mins by spectrophotometric method; format: cell-based; conditions: filed as antagonist
C-X-C chemokine receptor type 4 (Homo sapiens), P61073 [Y45A], sequence (P61073 whole entry Y45A): as the sequence (P61073 whole entry) above, with Y45A counted along it

[9] = tested on: C-X-C chemokine receptor type 4 (Homo sapiens), P61073 [T117A]; assay: Displacement of 12G5 mAb from CXCR4 T117A mutant (unknown origin) expressed in CHO cells at 500 nM incubated for 40 mins by spectrophotometric method; format: cell-based; conditions: filed as antagonist
C-X-C chemokine receptor type 4 (Homo sapiens), P61073 [T117A], sequence (P61073 whole entry T117A): as the sequence (P61073 whole entry) above, with T117A counted along it

[10] = target: T1, C-X-C chemokine receptor type 4; assay: Antagonist activity against CXCR4 in human SUP-T1 cells assessed as inhibition of SDF-1alpha-induced cell migration preincubated with cells for 30 mins followed by incubation with SDF-1alpha for 3 hrs by CellTiter-96 reagent based transwell assay; conditions: filed as antagonist, time 210.0 min
[11] = target: T1, C-X-C chemokine receptor type 4; assay: Antagonist activity against EGFP-tagged CXCR4 (unknown origin) transfected in CHO cells assessed as inhibition of SDF-1alpha-induced receptor internalization at 0.01 to 10 uM preincubated for 10 mins followed by SDF-1alpha addition by confocal microscopy; format: cell-based; conditions: filed as antagonist, dose 0.01-10 µM
[12] = target: C-C chemokine receptor type 5 (Homo sapiens) (UniProt P51681); assay: Displacement of C-45523 from CCR5 (unknown origin) expressed in CHO cells at 50 uM incubated for 40 mins by competitive binding assay based spectrophotometric method; format: cell-based
C-C chemokine receptor type 5 (Homo sapiens), sequence (P51681 whole entry, looked up): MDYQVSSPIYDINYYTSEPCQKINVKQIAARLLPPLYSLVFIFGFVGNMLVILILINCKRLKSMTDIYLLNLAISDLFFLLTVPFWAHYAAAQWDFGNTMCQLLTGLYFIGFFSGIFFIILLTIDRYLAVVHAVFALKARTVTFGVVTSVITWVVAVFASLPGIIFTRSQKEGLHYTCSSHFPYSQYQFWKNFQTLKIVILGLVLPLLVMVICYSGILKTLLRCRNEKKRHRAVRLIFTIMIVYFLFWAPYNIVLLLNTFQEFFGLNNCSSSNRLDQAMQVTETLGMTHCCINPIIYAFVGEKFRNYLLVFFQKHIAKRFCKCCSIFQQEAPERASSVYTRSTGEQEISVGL

[13] = tested on: C-X-C chemokine receptor type 4 (Homo sapiens), P61073 [N119A]; assay: Displacement of 12G5 mAb from CXCR4 N119A mutant (unknown origin) expressed in CHO cells at 500 nM incubated for 40 mins by spectrophotometric method; format: cell-based
C-X-C chemokine receptor type 4 (Homo sapiens), P61073 [N119A], sequence (P61073 whole entry N119A): as the sequence (P61073 whole entry) above, with N119A counted along it

[14] = tested on: C-X-C chemokine receptor type 4 (Homo sapiens), P61073 [D97A]; assay: Displacement of 12G5 mAb from CXCR4 D97A mutant (unknown origin) expressed in CHO cells at 500 nM incubated for 40 mins by spectrophotometric method; format: cell-based
C-X-C chemokine receptor type 4 (Homo sapiens), P61073 [D97A], sequence (P61073 whole entry D97A): as the sequence (P61073 whole entry) above, with D97A counted along it

[15] = tested on: C-X-C chemokine receptor type 4 (Homo sapiens), P61073 [W94A]; assay: Displacement of 12G5 mAb from CXCR4 W94A mutant (unknown origin) expressed in CHO cells at 500 nM incubated for 40 mins by spectrophotometric method; format: cell-based
C-X-C chemokine receptor type 4 (Homo sapiens), P61073 [W94A], sequence (P61073 whole entry W94A): as the sequence (P61073 whole entry) above, with W94A counted along it

[16] = tested on: C-X-C chemokine receptor type 4 (Homo sapiens), P61073 [D193A]; assay: Displacement of 12G5 mAb from CXCR4 D193A mutant (unknown origin) expressed in CHO cells at 500 nM incubated for 40 mins by spectrophotometric method; format: cell-based
C-X-C chemokine receptor type 4 (Homo sapiens), P61073 [D193A], sequence (P61073 whole entry D193A): as the sequence (P61073 whole entry) above, with D193A counted along it

[17] = tested on: C-X-C chemokine receptor type 4 (Homo sapiens), P61073 [E288A]; assay: Displacement of 12G5 mAb from CXCR4 E288A mutant (unknown origin) expressed in CHO cells at 500 nM incubated for 40 mins by spectrophotometric method; format: cell-based
C-X-C chemokine receptor type 4 (Homo sapiens), P61073 [E288A], sequence (P61073 whole entry E288A): as the sequence (P61073 whole entry) above, with E288A counted along it

[18] = target: T1, C-X-C chemokine receptor type 4; assay: Antagonist activity against CXCR4 in human SUP-T1 cells assessed as inhibition of SDF-1alpha-induced cell migration at 10 uM preincubated with cells for 30 mins followed by incubation with SDF-1alpha for 3 hrs by CellTiter-96 reagent based transwell assay; conditions: filed as antagonist, time 210.0 min
[19] = tested on: C-X-C chemokine receptor type 4 (Homo sapiens), P61073 [W161A]; assay: Displacement of 12G5 mAb from CXCR4 W161A mutant (unknown origin) expressed in CHO cells at 500 nM incubated for 40 mins by spectrophotometric method; format: cell-based
C-X-C chemokine receptor type 4 (Homo sapiens), P61073 [W161A], sequence (P61073 whole entry W161A): as the sequence (P61073 whole entry) above, with W161A counted along it

[20] = tested on: C-X-C chemokine receptor type 4 (Homo sapiens), P61073 [E288Q]; assay: Displacement of 12G5 mAb from CXCR4 E288Q mutant (unknown origin) expressed in CHO cells at 500 nM incubated for 40 mins by spectrophotometric method; format: cell-based; conditions: filed as antagonist
C-X-C chemokine receptor type 4 (Homo sapiens), P61073 [E288Q], sequence (P61073 whole entry E288Q): as the sequence (P61073 whole entry) above, with E288Q counted along it

[21] = tested on: C-X-C chemokine receptor type 4 (Homo sapiens), P61073 [D262N]; assay: Displacement of 12G5 mAb from CXCR4 D262N mutant (unknown origin) expressed in CHO cells at 500 nM incubated for 40 mins by spectrophotometric method; format: cell-based; conditions: filed as antagonist
C-X-C chemokine receptor type 4 (Homo sapiens), P61073 [D262N], sequence (P61073 whole entry D262N): as the sequence (P61073 whole entry) above, with D262N counted along it

[22] = target: T1, C-X-C chemokine receptor type 4; assay: Antagonist activity against EGFP-tagged CXCR4 (unknown origin) transfected in CHO cells assessed as inhibition of SDF-1alpha-induced receptor internalization at 10 uM preincubated for 10 mins followed by SDF-1alpha addition by confocal microscopy; format: cell-based; conditions: filed as antagonist
[23] = tested on: C-X-C chemokine receptor type 4 (Homo sapiens), P61073 [W195A]; assay: Displacement of 12G5 mAb from CXCR4 W195A mutant (unknown origin) expressed in CHO cells at 500 nM incubated for 40 mins by spectrophotometric method; format: cell-based
C-X-C chemokine receptor type 4 (Homo sapiens), P61073 [W195A], sequence (P61073 whole entry W195A): as the sequence (P61073 whole entry) above, with W195A counted along it

[24] = target: T1, C-X-C chemokine receptor type 4; assay: Antagonist activity against CXCR4 in human SUP-T1 cells assessed as inhibition of SDF-1alpha-induced intracellular calcium mobilization at 10 uM by Fluo-4AM dye based fluorescence analysis; format: cell-based; conditions: filed as antagonist
[25] = target: T1, C-X-C chemokine receptor type 4; assay: Antagonist activity against CXCR4 in human SUP-T1 cells assessed as inhibition of SDF-1alpha-induced intracellular calcium mobilization by Fluo-4AM dye based fluorescence analysis; format: cell-based; conditions: filed as antagonist, dose 0.01-10 µM
[26] = tested on: C-X-C chemokine receptor type 4 (Homo sapiens), P61073 [F87A]; assay: Displacement of 12G5 mAb from CXCR4 F87A mutant (unknown origin) expressed in CHO cells at 500 nM incubated for 40 mins by spectrophotometric method; format: cell-based
C-X-C chemokine receptor type 4 (Homo sapiens), P61073 [F87A], sequence (P61073 whole entry F87A): as the sequence (P61073 whole entry) above, with F87A counted along it

For CC(C)C[C@@H](N)C(=O)NCC(=O)N[C@H](C)C(=O)N[C@H](CO)C(=O)N[C@H](Cc1c[nH]c2ccccc12)C(=O)N[C@H](Cc1cnc[nH]1)C(=O)N[C@H](CCCNC(=N)N)C(=O)N1CCC[C@@H]1C(=O)N[C@H](CC(=O)O)C(=O)N[C@H](CCCCN)C(=O)N[C@H](CCCCN)C(=O)N[C@H](CCCNC(=N)N)C(=O)N(CCCCCC(=O)O)[C@@H](CCCCN[C@H](CS)C(=O)N[C@H](C(=O)N[C@@H](CCCNC(=N)N)C(=O)N1CCC[C@H]1C(=O)N[C@@H](CC(N)=O)C(=O)N[C@@H](CC(N)=O)C(=O)N[C@@H](CC(N)=O)C(=O)N[C@H](C(=O)N[C@@H](CCCCN)C(=O)N[C@@H](CCCNC(=N)N)C(N)=O)[C@H](C)O)[C@H](C)O)C(N)=O, the Activity [1] was “inactive”, the Activity [2] was “Non-Toxic” and the Activity [3] was “Active”. The IC50 [4] was 25.4 nM.
With CC(C)C[C@@H](N)C(=O)NCC(=O)N[C@H](C)C(=O)N[C@H](CO)C(=O)N[C@H](Cc1c[nH]c2ccccc12)C(=O)N[C@H](Cc1cnc[nH]1)C(=O)N[C@H](CCCNC(=N)N)C(=O)N1CCC[C@@H]1C(=O)N[C@H](CC(=O)O)C(=O)N[C@H](CCCCN)C(=O)N[C@H](CCCCN)C(=O)N[C@H](CCCNC(=N)N)C(=O)N(CCCCCC(=O)O)[C@@H](CCCCN)C(=O)N[C@@H](CCCNC(=N)N)C(=O)N[C@@H](CCCCN)C(=O)N[C@@H](CCC(N)=O)C(=O)N[C@@H](CCCNC(=N)N)C(=O)NCC(=O)N1CCC[C@H]1C(=O)NCC(=O)N[C@@H](CCCNC(=N)N)C(=O)N[C@@H](C)C(=O)N[C@@H](Cc1ccccc1)C(N)=O the inhibition [5] was “inactive”, the inhibition [6] was “inactive” and the inhibition [7] was “inactive”. The inhibition [8] was “Active”, the Activity [1] was “inactive” and the inhibition [9] was “Active”. The inhibition [10] was “Dose-Dependent Effect”, the inhibition [11] was “Active” and the inhibition [12] was 17.2%. For the same compound, the inhibition [13] was “inactive”, the inhibition [14] was “inactive” and the Activity [2] was “Non-Toxic”. The inhibition [15] was “inactive”, the inhibition [16] was “inactive” and the inhibition [17] was “inactive”. The inhibition [18] was 100%, the inhibition [19] was “inactive” and the Activity [3] was “Active”. The inhibition [20] was “Active”, the inhibition [21] was “Active” and the inhibition [22] was 100%. The inhibition [23] was “inactive”, the inhibition [24] was 100% and the inhibition [25] was “Dose-Dependent Effect”. For the same compound, the inhibition [26] was “inactive”.
Compound CC(C)C[C@@H](N)C(=O)NCC(=O)N[C@H](C)C(=O)N[C@H](CO)C(=O)N[C@H](Cc1c[nH]c2ccccc12)C(=O)N[C@H](Cc1cnc[nH]1)C(=O)N[C@H](CCCNC(=N)N)C(=O)N1CCC[C@@H]1C(=O)N[C@H](CC(=O)O)C(=O)N[C@H](CCCCN)C(=O)N[C@H](CCCCN)C(=O)N[C@H](CCCNC(=N)N)C(=O)N(CCCCCC(=O)O)[C@@H](CCCCN)C(=O)N[C@@H](CCCNC(=N)N)C(=O)N[C@@H](CCCCN)C(=O)N[C@H](CS)C(=O)N[C@H](C(=O)N[C@@H](CCCNC(=N)N)C(=O)N1CCC[C@H]1C(=O)N[C@@H](CC(N)=O)C(=O)N[C@@H](CC(N)=O)C(=O)N[C@@H](CC(N)=O)C(=O)N[C@H](C(N)=O)[C@H](C)O)[C@H](C)O has an inhibition [12] of 10.4% and an IC50 [4] of 48 nM.
Compound CC(C)C[C@@H](N)C(=O)NCC(=O)N[C@H](C)C(=O)N[C@H](CO)C(=O)N[C@H](Cc1c[nH]c2ccccc12)C(=O)N[C@H](Cc1cnc[nH]1)C(=O)N[C@H](CCCNC(=N)N)C(=O)N1CCC[C@@H]1C(=O)N[C@H](CC(=O)O)C(=O)N[C@H](CCCCN)C(=O)N[C@H](CCCCN)C(=O)N[C@H](CCCNC(=N)N)C(N)=O (H-[dL]G[dA][dS][dW][dH][dR][dP][dD][dK][dK][dR]-NH2) has an IC50 [4] of 531 nM.
